Results: patent US8012959B2, “Diaminopyrimidinecarboxamide derivative” (Astellas Pharma Inc., priority 2002, dated 2011)

Tested on: neutrophil infiltration
Test: SO2 gas-induced intra-alveolar neutrophil infiltration model
Type: in vivo
Settings: hydrochloride, oral administration, 10 mg/kg, for 2 days, male C57BL/6 mice, SO2 gas 600 ppm, alveolar lavage fluid
Protocol: Evaluation Using SO2 Gas-induced Intra-alveolar Neutrophil Infiltration Model Mouse Asthma Model
Male C57BL/6 mice were exposed to SO2 gas (600 ppm) for 3 hours and sacrificed by bloodletting 48 hours after the exposure, and then alveolar lavage was carried out. After the measurement of total white blood cell count in the alveolar lavage fluid, cell smear preparations were stained to calculate existing ratio of neutrophil based on its morphological characteristics. The number of neutrophils was calculated from the total white blood cell count and existing ratio of respective cells. A compound to be tested or a control, 0.5% methyl cellulose, was orally administered for 2 days from just before the exposure or just after the exposure to before the alveolar lavage.

Q: `NC(=O)c1cnc(Nc2ccc(N3CCOCC3)cc2)nc1NCc1ccccc1` [Example 3, 4-benzylamino-2-{[4-(morpholin-4-yl)phenyl]amino}pyrimidine-5-carboxamide] was tested. Which “inhibition of neutrophil infiltration” value did it give?
A: Its value is “about 70%”.
